Data reported in PMC7878868, “Mechanisms of feedback inhibition and sequential firing of active sites in plant aspartate transcarbamoylase” (Nature Communications, 2021).
Residue numbers refer to the chain shown, from its start. In names and notes the source's numbering stands. Several values for one entry are separate records, joined by “and”; a condition that tells them apart may be missing. Identical values can stand only once.

Legend:
plant ATCs = test system: plant ATCs; set-up: method as in PMID 14479231, doi:10.1093/jxb/40.10.1121; conditions: cited from earlier work
atATC-F161A [1] = target: T1, atATC-F161A (Arabidopsis thaliana, UniProt P49077, F161A); assay: biochemical; format: binding
T1 construct: 2.6 kDa fusion tag (modified pET28a); made in house; host or cells: E. coli BLR(DE3)-pLysS
T1 sequence (P49077 82-390 F161A): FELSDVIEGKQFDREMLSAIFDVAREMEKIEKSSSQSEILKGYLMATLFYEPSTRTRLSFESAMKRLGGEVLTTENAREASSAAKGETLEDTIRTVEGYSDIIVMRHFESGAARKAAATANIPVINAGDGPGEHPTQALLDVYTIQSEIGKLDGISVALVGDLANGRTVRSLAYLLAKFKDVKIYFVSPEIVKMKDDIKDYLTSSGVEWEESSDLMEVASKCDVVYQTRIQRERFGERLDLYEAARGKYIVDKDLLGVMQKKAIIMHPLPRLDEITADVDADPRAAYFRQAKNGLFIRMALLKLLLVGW
Procedure: (§1) Experiments were performed in an Auto-iTC200 calorimeter (MicroCal, Malvern-Panalytical) at 25 °C with a 0.2 ml reaction cell and 30–40 µM protein solution (in protomer units) in the cell. […] All solutions were in GF buffer and degassed and mixed in the cell by stirring at 750 rpm. Data analysis was performed with Origin 7 (OriginLab) using a general three-site cooperative and a non-cooperative binding model, restricted to one or two ligand binding sites when convenient[24],[62],[63]. Non-linear least-squares regression analysis was employed to estimate dissociation constants for the interaction of the different ligands with ATC.

atATC-F161A [2] = target: T1, atATC-F161A; assay: Colorimetric ATC activity assay, atATC F161A; format: biochemical; conditions: for Activity F161A: 10 mM Asp
Procedure: (§2) Activity was assayed by a colorimetric method[64] adapted to a 96-well plate format. […] Reagent B is light sensitive and was stored at 4 °C in the dark. The color reagents were gently mixed and stored at 4 °C in the dark until added to the sample. Reaction tubes were closed, boiled at 95 °C for 15 min, and kept in the dark for 30 min before measuring the absorbance at 450 nm in a Tecan infinite m200 microplate reader (Tecan). […] Data analysis was done with GraphPad. […] Protein concentration in the assay was 0.3 µM (0.01 mg ml^−1) both for WT and F161A.

Arabidopsis seedlings = assay: Seedling assay in liquid culture with PALA (fresh weight, root length); format: in vivo, Arabidopsis thaliana; conditions: for fresh weight compared to untreated seedlings / root length relative to untreated seedlings / root length, average: 7 days; for fresh weight compared to untreated seedlings: n = 3 (3 times 10 seedlings); for root length relative to untreated seedlings / root length, average: n = 30; for root length, average: untreated 2.68 ± 0.49 cm; for Freshweight, single replicates (10 seedlings): source data of Figure 3a; for Freshweight, average (10 seedlings): 0 mM PALA 0.1699 g
Procedure: For DNA isolation, tissue collection and phenotypic inspection, wild-type Col-0 and transgenic Arabidopsis thaliana (L.) Heynh. plants (ecotype Columbia) were used throughout. Plants were grown in standardized soil (ED73 Einheitserde, Humuswerke Patzer) soil under long day conditions (120 μmol quanta m^−2 s^−1 in a […] regime, temperature 22 °C, humidity 60%). Prior to germination, seeds were incubated for 24 h in the dark at 4 °C for imbibition. […] The liquid cultures were maintained on a shaker at 100 rpm under the same light and temperature conditions as soil-grown plants. Leaf extract of wild-type and mutants was prepared by homogenizing leaf material in extraction buffer (50 mM HEPES-KOH pH 7.2, 5 mM MgCl2, 2 mM phenylmethylsulfonyl fluoride (PMSF) on ice. The homogenous extract was centrifuged at 20,000g for 10 min at 4 °C. The supernatant was collected and stored on ice until use.

atATC WT = target: T2, atATC WT (Arabidopsis thaliana, UniProt P49077); assay: Colorimetric ATC activity assay, atATC WT; format: biochemical; conditions: 10 mM Asp
T2 construct: 2.6 kDa fusion tag (modified pET28a); made in house; host or cells: E. coli BLR(DE3)-pLysS
T2 sequence (P49077 82-390): T1 sequence (P49077 82-390 F161A) with A80F
Procedure: as §2

[3] = target: T3, atATC (Arabidopsis ATC aa 82–390) WT (Arabidopsis thaliana, UniProt P49077); assay: Isothermal titration calorimetry (ITC), atATC WT; format: binding; conditions: site 1
T3 construct: 2.6 kDa fusion tag (modified pET28a); made in house; host or cells: E. coli BLR(DE3)-pLysS
T3 sequence (P49077 82-390): T1 sequence (P49077 82-390 F161A) with A80F
Procedure: as §1

[4] = target: the molecule itself; assay: SEC-MALS; 400 ul of purified protein at 1.4 mg/ml on Superdex 200 10/300 in GF buffer (20 mM Tris pH 7.0, 0.1 M NaCl, 2% glycerol, 0.2 mM TCEP), 0.5 ml/min; self-association: homotrimer
[5] = substrate: NC(=O)OP(=O)(O)O; assay: purified protein, by the assay type; conditions: other: WT, CP variable, 10 mM Asp, absence of UMP; pH 8.3
[6] = target: the molecule itself; assay: crystal structure; X-ray crystal structures of the trimer (with UMP, apo, with PALA, with PALA + CP, with CP; F161A with UMP or PALA); sitting-drop vapor diffusion at room temperature, PEG 3350 conditions, data at 100 K
[7] = substrate: NC(=O)OP(=O)(O)O; assay: Colorimetric ATC activity assay, atATC F161A; format: biochemical, Arabidopsis thaliana; conditions: other: F161A, CP variable, 10 mM Asp; pH 8.3
Procedure: Activity was assayed by a colorimetric method[64] adapted to a 96-well plate format[24]. […] Reagent B is light sensitive and was stored at 4 °C in the dark. The color reagents were gently mixed and stored at 4 °C in the dark until added to the sample. Reaction tubes were closed, boiled at 95 °C for 15 min, and kept in the dark for 30 min before measuring the absorbance at 450 nm in a Tecan infinite m200 microplate reader (Tecan). […] Data analysis was done with GraphPad. In the absence of inhibitors, WT kinetics obey Michaelis-Menten equation v = [Vmax·X/K0.5 + X], where X is substrate concentration and K0.5 is the substrate concentration at which the initial rate (v) is one-half of the maximum velocity (Vmax)]. […] Protein concentration in the assay was 0.3 µM (0.01 mg ml^−1) both for WT and F161A.

Molecule: O=c1ccn([C@@H]2O[C@H](COP(=O)(O)OP(=O)(O)OP(=O)(O)O)[C@@H](O)[C@H]2O)c(=O)[nH]1 [UTP]
- inhibition of plant ATCs (plant ATCs): not inhibitors

Molecule: O=c1ccn([C@@H]2O[C@H](COP(=O)(O)OP(=O)(O)O)[C@@H](O)[C@H]2O)c(=O)[nH]1 [UDP]
- inhibition of plant ATCs (plant ATCs): not inhibitors

Molecule: O=C(O)C[C@H](NC(=O)CP(=O)(O)O)C(=O)O [PALA, N-(phosphonacetyl)-L-aspartate]
- Kd (atATC-F161A [1]): 120 nM
- N, number of binding sites per protein trimer according to the ligand binding model (atATC-F161A [1]; ITC, F161A): 1
- fold higher affinity of F161A than WT (atATC-F161A [1]; ITC, F161A versus WT): 5 fold
- -TΔS Site 1 (atATC-F161A [1]; ITC, F161A, site 1): -20.4 kcal/mol
- ΔG Site 1 (atATC-F161A [1]; ITC, F161A, site 1): -9.4 kcal/mol
- ΔH Site 1 (atATC-F161A [1]; ITC, F161A, site 1): 11.0 kcal/mol
- Activity F161A (atATC-F161A [2]; 0.01 mM PALA, [CP] 0.15 mM): 4.41 nmol / min μg and 6.29 nmol / min μg and 5.34 nmol / min μg
- Activity F161A (atATC-F161A [2]; 0.01 mM PALA, [CP] 0.31 mM): 5.13 nmol / min μg and 6.44 nmol / min μg and 9.47 nmol / min μg
- Activity F161A (atATC-F161A [2]; 0.01 mM PALA, [CP] 0.63 mM): 25.34 nmol / min μg and 31.98 nmol / min μg and 21.75 nmol / min μg
- Activity F161A (atATC-F161A [2]; 0.01 mM PALA, [CP] 1.25 mM): 39.80 nmol / min μg and 37.97 nmol / min μg and 40.98 nmol / min μg
- Activity F161A (atATC-F161A [2]; 0.01 mM PALA, [CP] 2.50 mM): 38.56 nmol / min μg and 36.28 nmol / min μg and 37.57 nmol / min μg
- Activity F161A (atATC-F161A [2]; 0.1 mM PALA, [CP] 1.25 mM): 11.15 nmol / min μg and 10.75 nmol / min μg and 7.03 nmol / min μg
- Activity F161A (atATC-F161A [2]; 0.1 mM PALA, [CP] 2.50 mM): 5.52 nmol / min μg and 9.09 nmol / min μg and 9.11 nmol / min μg
- sensitivity of enzyme activity to PALA compared to WT (atATC-F161A [2]; F161A): more sensitive
- fresh weight compared to untreated seedlings (Arabidopsis seedlings; 0.2 mM PALA): 59%
- root length relative to untreated seedlings (Arabidopsis seedlings; 0.2 mM PALA): 36%
- root length, average (Arabidopsis seedlings; 0.2 mM PALA): 0.96 ± 0.22 cm and 0.962 cm
- Freshweight, single replicates (10 seedlings) (Arabidopsis seedlings; 0.2 mM PALA): 0.1006 g and 0.0950 g and 0.1032 g
- Freshweight, average (10 seedlings) (Arabidopsis seedlings; 0.2 mM PALA): 0.0996 g
- fresh weight compared to untreated seedlings (Arabidopsis seedlings; 0.4 mM PALA): 23%
- root length relative to untreated seedlings (Arabidopsis seedlings; 0.4 mM PALA): 8%
- root length, average (Arabidopsis seedlings; 0.4 mM PALA): 0.21 ± 0.09 cm and 0.213 cm
- Freshweight, single replicates (10 seedlings) (Arabidopsis seedlings; 0.4 mM PALA): 0.0435 g and 0.0329 g and 0.0417 g
- Freshweight, average (10 seedlings) (Arabidopsis seedlings; 0.4 mM PALA): 0.0394 g
- chlorosis of seedlings (Arabidopsis seedlings; PALA-treated seedlings): Chlorosis was also apparent
- Activity WT (atATC WT; 0.01 mM PALA, [CP] 0.16 mM): 17.11 nmol / min μg and 10.69 nmol / min μg and 14.77 nmol / min μg
- Activity WT (atATC WT; 0.01 mM PALA, [CP] 0.31 mM): 20.84 nmol / min μg and 20.81 nmol / min μg and 18.28 nmol / min μg
- Activity WT (atATC WT; 0.01 mM PALA, [CP] 0.63 mM): 27.62 nmol / min μg and 26.91 nmol / min μg and 26.59 nmol / min μg
- Activity WT (atATC WT; 0.01 mM PALA, [CP] 1.25 mM): 40.50 nmol / min μg and 40.46 nmol / min μg and 40.29 nmol / min μg
- Activity WT (atATC WT; 0.01 mM PALA, [CP] 2.50 mM): 50.62 nmol / min μg and 53.39 nmol / min μg and 49.84 nmol / min μg
- Activity WT (atATC WT; 0.01 mM PALA, [CP] 5.00 mM): 66.15 nmol / min μg and 65.77 nmol / min μg and 55.96 nmol / min μg
- Activity WT (atATC WT; 0.1 mM PALA, [CP] 0.31 mM): 4.77 nmol / min μg and 4.92 nmol / min μg and 5.38 nmol / min μg
- Activity WT (atATC WT; 0.1 mM PALA, [CP] 0.63 mM): 10.55 nmol / min μg and 10.43 nmol / min μg and 10.56 nmol / min μg
- Activity WT (atATC WT; 0.1 mM PALA, [CP] 1.25 mM): 19.60 nmol / min μg and 18.57 nmol / min μg and 27.14 nmol / min μg
- Activity WT (atATC WT; 0.1 mM PALA, [CP] 2.50 mM): 27.12 nmol / min μg and 29.01 nmol / min μg and 31.29 nmol / min μg
- Activity WT (atATC WT; 0.1 mM PALA, [CP] 5.00 mM): 33.74 nmol / min μg and 33.21 nmol / min μg
- -TΔS Site 1 ([3]; ITC): -21.6 kcal/mol
- ΔG Site 1 ([3]; ITC): -8.5 kcal/mol
- ΔH Site 1 ([3]; ITC): 13.1 kcal/mol
- Kd ([3]; KD Site 1, ITC, 25 °C): 590 nM and 600 nM

B1: Arabidopsis aspartate transcarbamoylase, construct spanning aa 82-390 (atATC) (enzyme, Arabidopsis thaliana, UniProt P49077 82-390, looked up)
chain: T1 sequence (P49077 82-390 F161A) with A80F
notes: Aspartate transcarbamoylase (ATC; pyrB; At3g20330) of Arabidopsis thaliana, aa 82-390 of the 390 aa precursor protein with an N-terminal chloroplast transit peptide; amplified from cDNA; No cleavage of the tag is described, and the text speaks of the size of purified atATC 'excluding the 2.6 kDa fusion tag', so the tag was probably kept; It is probably a His tag (Ni-sepharose purification); The …
- stoichiometry N [4]: 3
- K0.5 [5]: 0.46 ± 0.10 mM

B2: atATC mutant F161A (enzyme, Arabidopsis thaliana, UniProt P49077 82-390, looked up)
chain: T1 sequence (P49077 82-390 F161A)
notes: Aspartate transcarbamoylase (ATC; pyrB; At3g20330) of Arabidopsis thaliana, aa 82-390 of the 390 aa precursor protein, with F161 replaced by Ala; Made by site-directed mutagenesis of the atATC construct; same tag and purification as m1; also called atATC-F161A; source: E. coli BLR(DE3)-pLysS, purified (Ni-sepharose, size-exclusion chromatography on Superdex 75); not shown: fusion tag (2.6 kDa)
- binding result [6]: binds
- K0.5 [7]: 0.62 ± 0.13 mM
